# “Also recorded” adds a separate entry of the source. Like-named read-outs stand apart in the source and are kept apart here.
# Experiments:
# [1] = target: T1, COX-2 (Homo sapiens, UniProt P35354); assay: Inhibition of COX-2 in COLO 205 cell line (Prostaglandin E2 EIA); type: cell-based
# T1 construct: host or cells: COLO 205
# T1 sequence (P35354 18-604): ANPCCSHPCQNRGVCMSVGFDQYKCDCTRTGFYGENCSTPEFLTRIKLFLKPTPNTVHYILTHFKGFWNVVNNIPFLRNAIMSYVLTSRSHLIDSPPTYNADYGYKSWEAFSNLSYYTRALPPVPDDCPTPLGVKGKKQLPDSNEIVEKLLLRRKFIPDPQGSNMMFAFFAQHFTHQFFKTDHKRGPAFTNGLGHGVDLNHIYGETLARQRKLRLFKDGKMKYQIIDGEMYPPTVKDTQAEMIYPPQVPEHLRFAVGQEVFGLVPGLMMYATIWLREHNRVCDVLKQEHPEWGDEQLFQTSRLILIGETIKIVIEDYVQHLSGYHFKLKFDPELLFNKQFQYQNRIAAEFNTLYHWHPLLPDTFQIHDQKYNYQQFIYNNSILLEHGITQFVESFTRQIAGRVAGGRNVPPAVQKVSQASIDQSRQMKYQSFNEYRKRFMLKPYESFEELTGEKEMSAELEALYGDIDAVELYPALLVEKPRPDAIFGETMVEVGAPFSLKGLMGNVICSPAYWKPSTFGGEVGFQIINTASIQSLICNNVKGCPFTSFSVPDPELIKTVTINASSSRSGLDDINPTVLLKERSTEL
# Description: Enzyme-Linked ImmunoSorbent Assay Kit (Prostaglandins E2 (PEG2) EIA Kit-Monoclonal, Cayman Chemical company (U.S.A)).
# [2] = system: animal model of anti-histamine; assay: Animal model of anti-histamine (Evans blue, dyed back skin); type: in vivo; conditions: rat; for Inhibition rate (%): histamine s.c., Evans blue; for Absorbency(A): blank control 0.099
# Procedure: Forty healthy male rats were divided randomly into 4 groups, […], namely, the blank control group, the 5,6-di(m-acetylphenylamino)-2,3-pyridindione group, the 5,6-di(m-carboxylphenylamino)-2,3-pyridindione group, and the aspirin group as the positive control group. The compounds with dosage listed in Table 3 were administered orally to the rats, respectively, then 0.1 ml of […] was administered subcutaneously, and then 1 ml of 1% Evans blue was immediately injected intravenously under the tongue.
# [3] = system: rat model of toe swelling; assay: Rat model of toe swelling (3% formaldehyde); type: in vivo; conditions: toe volume 2 hours after injection
# Procedure: Forty healthy male rats were divided randomly into 4 groups, 10 rats per group, namely, the blank control group, the 5,6-di(m-acetylphenylamino)-2,3-pyridindione group, the 5,6-di(m-carboxylphenylamino)-2,3-pyridindione group, and the aspirin group as the drug control group. 0.1 ml of inflammation inducer (3% formaldehyde) was subcutaneously injected into the right toe of the hind leg of each rat. After 24 hours, the compounds with dosage listed in Table 1 were injected into the rats, respectively. The volume of the toes was measured 2 hours later after injection by using the Water Volume Method described in the Methodology of Pharmacology Experiments, 2nd edition, Shu-yun Xu, etc., People's Medical Publishing House, Beijing, 1991.
# [4] = system: mouse skin capillary permeability; assay: Increment of the mouse skin capillary permeability (xylene, Evans blue); type: in vivo; conditions: OD at 590 nm, blank control 0.442 ± 0.240, lower is better
# Description: One hundred and seventy healthy male mice were divided randomly into 17 groups, 10 mice per group, namely, the blank control group, the high, medium, and low dosage groups of 5,6-di(m-acetylphenylamino)-2,3-pyridindione, respectively, the high, medium, and low dosage groups of 5,6-di(m-carboxylphenylamino)-2,3-pyridindione, respectively, the high, medium, and low dosage groups of 5,6-di(p-carboxylphenylamino)-2,3-pyridindione, respectively, the high, medium, and low dosage groups of 5,6-di(p-chlorophenylamino)-2,3-pyridindione, respectively, the high, medium, and low dosage groups of 5,6-di(p-tolylamino)-2,3-pyridindione, and the aspirin group as the positive control group. The mice were administered via gastro infusion according to the Table 5, and 1 hour later, 0.5%. Evans blue saline was injected into the mice via tail vain at 0.1 ml/10 g, then xylene with a dosage of 0.03 ml/mouse was applied to the mice in the shaved area at the middle belly. The mice were killed by cervical dislocation 20 min later, and their belly skin was peeled off, where the blue area was removed by using a biopsy punch, broken up by using surgery scissors, and put into covered glass tubes. Seven milliliters of acetone/water (7:3, v/v) solution was added into each tube, which was then stored in the dark and was gently shaken up 2-3 times daily. After 3 days, the solution in each tube was centrifuged at 2000 rpm for 10 min, and the supernatant was measured for optical density at 590 nm with the absorption of acetone/water (7:3, v/v) solution as the baseline. The lower the OD value, the better the anti-inflammatory effect.
# [5] = target: COX-1 (Homo sapiens, UniProt P23219); assay: Inhibition of COX-1 (TMPD/arachidonic acid, absorption at 611 nm); type: biochemical
# COX-1, sequence (P23219 24-599): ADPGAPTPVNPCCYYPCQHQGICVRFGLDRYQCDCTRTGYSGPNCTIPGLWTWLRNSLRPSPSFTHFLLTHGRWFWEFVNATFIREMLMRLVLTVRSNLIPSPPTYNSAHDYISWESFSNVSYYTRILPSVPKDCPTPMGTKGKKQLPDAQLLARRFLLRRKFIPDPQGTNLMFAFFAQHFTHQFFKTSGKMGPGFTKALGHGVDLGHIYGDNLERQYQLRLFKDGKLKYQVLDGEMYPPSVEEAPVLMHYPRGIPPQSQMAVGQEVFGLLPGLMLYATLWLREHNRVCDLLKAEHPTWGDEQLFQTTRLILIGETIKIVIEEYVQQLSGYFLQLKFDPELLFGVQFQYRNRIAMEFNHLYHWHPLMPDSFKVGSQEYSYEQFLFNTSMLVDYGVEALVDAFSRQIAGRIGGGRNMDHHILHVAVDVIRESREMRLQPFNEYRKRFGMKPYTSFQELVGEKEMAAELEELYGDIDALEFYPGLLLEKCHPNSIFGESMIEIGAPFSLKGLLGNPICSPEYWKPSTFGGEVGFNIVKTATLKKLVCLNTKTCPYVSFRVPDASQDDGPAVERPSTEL
# Procedure: Methods: 4 μl of COX-1 was added to 960 μl 0.1 M Tris-HCl in a cell. The mixture was equilibrated for 30s, and then added with 1 μl inhibitor. After 2 min, 15 μl TMPD and 15 μl A.A. were immediately added to the mixture and mixed well. After 7 min, the absorption was measured at 611 nm.
# [6] = system: mice; conditions: mouse, in vivo; for Death rate: both, 7 days
# Procedure: Toxicological test of 5,6-di(m-acetylphenylamino)-2,3-pyridindione Single dose administration was used. 5,6-di(m-acetylphenylamino)-2,3-pyridindione was prepared to the required concentration with the presence of 0.5% DMSO. Sixty healthy male mice and 60 healthy female mice were divided randomly into 10 mice per group, 12 groups, among which 5 groups were administered by tail vein injection, and 5 groups were administered via gastro infusion, and the other two groups were used as negative controls. The activities and death of mice were observed and recorded for 7 days after the administration of the compound.
# [7] = system: mouse model of auricle swelling; assay: Mouse model of auricle swelling (xylene); type: in vivo; conditions: xylene after 60 min, killed 4 hours later
# Procedure: Forty healthy male mice were divided randomly into 4 groups, 10 mice per group, namely, the blank control group, the 5,6-di(m-acetylphenylamino)-2,3-pyridindione group, the 5,6-di(m-carboxylphenylamino)-2,3-pyridindione group, and the aspirin group as the drug control group. The compounds with dosage listed in Table 2 were administered orally to the […], respectively. After 60 min 0.05 ml xylene (analytical grade) was applied on the right ear of each mouse, respectively. The mice were killed 4 hours later, a disk of ear tissue was removed from the same location of both ears using a 5.5-mm biopsy punch, then each of the ear disks was weighed, and the rates of auricle swelling inhibition were calculated, as listed in Table 2.
# [8] = 5 mg/kg injected 24 h after formaldehyde
# [9] = gastro infusion 1.0 mg/kg (low dosage)
# [10] = gastro infusion 3.2 mg/kg (medium dosage)
# [11] = gastro infusion 6.5 mg/kg (high dosage)
Compound,Inhibition rate (%) ([2]; 10 mg/kg orally),Absorbency(A) ([2]; 10 mg/kg orally),"Inhibition rate (%) of toe swelling [3, 8] [%]","OD (A) [4, 9] [A]","OD (A) [4, 10] [A]","OD (A) [4, 11] [A]",Inhibition rate (%) of auricle swelling ([7]; 30 mg/kg orally) [%],other results
"CC(=O)c1cccc(NC2=CC(=O)C(=O)N=C2Nc2cccc(C(C)=O)c2)c1 [5,6-di(m-acetylphenylamino)-2,3-pyridindione]",19,0.081,62.5,0.241 ± 0.121,0.035 ± 0.049,0.019 ± 0.018,83.2,"inhibition of the activity of COX-2 ([1]; COLO 205 cell line, PGE2 EIA, FIG. 2): higher inhibition effects on COX-2 than the former two; inhibition of the growth of the COLO205 cells ex vivo ([1]; FIG. 2 legend): inhibits the growth of the COLO205 cells ex vivo; inhibition effect on COX-1 ([5]; 1 μl of 10 mM inhibitor in dimethylsulfoxide, compared with control group without inhibitors, FIG. 1): no obvious inhibition effects; also recorded: almost no inhibition effect; Death rate ([6]; 720 mg/kg): 0; Death rate ([6]; 1030 mg/kg): 0; Death rate ([6]; 1470 mg/kg): 0; Death rate ([6]; 2100 mg/kg): 0; Death rate ([6]; 3000 mg/kg): 0; death of the animals [6]: No death of the animals was observed; toxic reaction in aspect of activity, reactivity, back hair, dejecta [6]: normal; Toxic reaction ([6]; 720 mg/kg): normal; Toxic reaction ([6]; 1030 mg/kg): normal; Toxic reaction ([6]; 1470 mg/kg): normal; Toxic reaction ([6]; 2100 mg/kg): normal; Toxic reaction ([6]; 3000 mg/kg): normal"
"O=C1C=C(Nc2cccc(C(=O)O)c2)C(Nc2cccc(C(=O)O)c2)=NC1=O [5,6-di(m-carboxylphenylamino)-2,3-pyridindione]",16,0.084,45.5,0.038 ± 0.026,0.030 ± 0.010,0.036 ± 0.011,65.5,–
"O=C1C=C(Nc2ccc(C(=O)O)cc2)C(Nc2ccc(C(=O)O)cc2)=NC1=O [5,6-di(p-carboxylphenylamino)-2,3-pyridindione]",–,–,–,0.089 ± 0.054,0.043 ± 0.023,0.030 ± 0.012,–,–
"O=C1C=C(Nc2ccc(Cl)cc2)C(Nc2ccc(Cl)cc2)=NC1=O [5,6-di(p-chlorophenylamino)-2,3-pyridindione]",–,–,–,0.142 ± 0.098,0.035 ± 0.026,0.015 ± 0.015,–,–
"Cc1ccc(NC2=CC(=O)C(=O)N=C2Nc2ccc(C)cc2)cc1 [5,6-di(p-tolylamino)-2,3-pyridindione]",–,–,–,0.049 ± 0.049,0.011 ± 0.022,0.051 ± 0.042,–,–
"CC(=O)Oc1ccccc1C(=O)O [Aspirin, reference compound]",–,–,–,–,–,–,–,Inhibition rate (%) ([2]; 160 mg/kg orally): 13%; Absorbency(A) ([2]; 160 mg/kg orally): 0.086 A; Inhibition rate (%) of toe swelling ([3]; 50 mg/kg injected 24 h after formaldehyde): 10.1%; inhibition effect on COX-1 [5]: inhibited; Inhibition rate (%) of auricle swelling ([7]; 100 mg/kg orally): 30.1%
